Experiment [1] addresses T1, human recombinant beta-2 adrenoreceptors (Homo sapiens, UniProt P07550).
T1 construct: expressed in transfected cells; host or cells: CHO cells
The experiment can be described thus: Functional agonism of human recombinant beta-2 adrenoreceptors expressed in CHO cells (cAMP, HTRF). It is filed as cell-based. The note with it: cAMP elevation, 30 min. The procedure: Functional Agonism of Human Recombinant Beta-2 Adrenoreceptors Expressed in Chinese Hamster Oocytes (CHO)
Test compounds were incubated for 30 min with CHO cells expressing the human recombinant beta-2 adrenoreceptors. Agonism of the receptor was measured by the elevation of intracellular cyclic-AMP over control levels detected using a homogeneous time resolved fluorescence (HTRF) format. Compounds were determined to be “full” or “partial” agonists based on the maximum level of cAMP accumulated compared to the control compound isoproterenol which is a full agonist in this assay system. Concentration response curves were generated for test compounds and the EC50 (molar concentration of the agonist which produced 50% of the maximal response for that compound) was determined. These assays were performed using a protocol based on the original description of the assay by Baker, J. G. (2005) Brit. J. Pharmacol.; 144:317-322.
EC50 determinations for the compounds presented above are seen in the third column of Table 1 (Beta 2 EC50).
For orientation: Time-resolved FRET reads energy transfer from a long-lived donor to a nearby acceptor.

The test system of experiment [2] is LPS-induced TNF-α release from human peripheral blood mononuclear cells (PBMC). The experiment is described as follows: Inhibition of LPS-induced TNF-α release from human PBMC. The note with it: LPS 0.4 ng/mL, 6 h, presence or absence of ICI-118551 not given. It is filed as cell-based. The source says: Inhibition of Lipopolysaccharide (LPS)-Induced Tumour Necrosis Factor Alpha (TNF-α) Release from Human Peripheral Blood Mononuclear Cells (PBMC)
Human whole blood was drawn from donors and cell purification initiated within two hours. Peripheral blood mononuclear cells (PBMC) were purified using a standard Ficoll gradient purification technique and aliquoted at a concentration of 100,000 cells/well in 96 well plates. Beta-2 adrenoreceptor agonists are also anti-inflammatory for some immune cells expressing the receptor and in this assay they can inhibit tumor necrosis factor-alpha (TNF-α) production. Therefore PBMC were pre-incubated for 30 min in the presence of the beta-2 adrenoreceptor antagonist ICI-118551 (3-(isopropylamino)-1-[(7-methyl-4-indanyl)oxy]butan-2-ol) (10 μM) to determine the PDE4 directed activity of test compounds, and in the absence of ICI-118551 for the combined PDE4 and beta-2 receptor directed activity. Test compounds were dissolved in DMSO and diluted in buffer (final DMSO concentration of 0.1% v/v) and were then added to the cell suspensions and pre-incubated for a further 1 h at 37° C. LPS solution was then added (0.4 ng/mL) and the cells incubated for a further 6 h. At the end of the incubation period the cell supernatants were collected and TNF-α was measured using a Procarta Cytokine Assay Kit (Affymetrix, Santa Clara, Calif.) according to the manufacturers' instructions. Data were analyzed using MiraiBio Masterplex QT v4.0 software (MasterPlex Version 1.0.1.18 Copyright 2008, Hitachi Software Engineering Co., Ltd) and used to extrapolate Mean Fluorescence Intensity (MFI) into concentrations of TNF-α and mean values from replicate wells were determined. Inhibition curves were plotted using a nonlinear curve fit employing a single-site binding model to determine the IC50 value for each test compound in the presence or absence of ICI-118551 using GraphPad Prism 5 for Windows, version 5.02 (GraphPad Software, San Diego Calif.).
EC50 determinations for the compounds presented above are seen in the fourth column of Table 1 (PBMC TNF EC50).

For experiment [3], the target named is T1, human recombinant beta-2 adrenoreceptors. The experiment can be described thus: Beta-2 adrenoceptor binding assay, displacement of [3H](−)CGP-12177. To be noted: CHO cells expressing human beta-2 adrenoreceptors, [3H](−)CGP-12177 0.3 nM, 120 min. Here is the method: Beta-2 Adrenoceptor Binding Assay
Test compounds were incubated for 120 min with Chinese hamster oocyte (CHO) cells expressing the human recombinant beta-2 adrenoreceptors. Binding of test compounds to the beta-2 adrenoreceptors was determined by measuring the displacement of the radiolabeled ligand [^3H](−)CGP-12177 (0.3 nM) from the receptor measured by a scintillation counting. Concentration response curves were generated for test compounds and the IC50 (molar concentration of the compound which produced 50% inhibition for the maximal response for that compound) was determined. These assays were performed using a protocol based on the original description of the assay by Joseph et al., (2004) Naun.-Sch. Arch. Pharm.; 369:525-532.
IC50 determinations for the compounds presented above are seen in the second column of Table 1 (Beta 2 IC50).
A general note: Displacement assays read how much labelled ligand stays bound in the presence of the test substance.

The next experiment addresses T2, Human recombinant PDE4B2 (Homo sapiens, UniProt Q07343).
T2 construct: purchased BPS Bioscience
The experiment can be described thus: Inhibition of PDE4B2 enzyme activity (PDE Glo Assay). The note with it: human recombinant PDE4B2, 50 nM cAMP; read-out: PDE4 IC50. It is filed as biochemical. Here is the method: Inhibition of PDE4B4 Enzyme Activity
The inhibitory activity of test compounds were determined using the PDE Glo Assay (Promega, V1361). The PDE-Glo Reaction Buffer was prepared (1 mL 5× buffer+4 mL water) and 150 nM solution of test compound dissolved in the Reaction Buffer, followed by 1:3 serial dilutions into Reaction Buffer. […] Human recombinant PDE4B2 (BPS Bioscience) was added to test compound in Reaction Buffer at a concentration of 0.12 nM per reaction. The enzyme and test compound were pre-incubated together at rt for 10 min. 50 nM of the enzyme substrate cAMP was then added to initiate the enzyme reaction, with the reaction terminated after one hour. Termination Buffer (1 mL 5× termination buffer+3.9 mL water+100 μL of 100 mM IBMX (ICN Chemicals, in DMSO)), was added to each reaction well to terminate the reaction. Detection Buffer (1 mL 5×PDE-Glo Detection buffer+3.96 mL water+40 μL PKA (supplied in kit)) was added to the cAMP-enzyme-test compound mix and this secondary reaction proceeded for 20 minutes at rt. An equal volume of Kinase Glo Reagent was then added to the reaction mixture and after 10 min luminescence was measured using a luminometer (EnVision, 0.1 sec read for luminescence). Luminescence values were […] related to levels of cAMP in the reaction mixture. Data were plotted as relative light units (RLU) versus test compound concentration and the IC50 determined using GraphPad Prism 5.0, using a nonlinear curve fit in a single-site binding model.
IC50 determinations for the compounds presented above are seen in the first column of Table 1 (PDE4 IC50).

T1 sequence (P07550 whole entry): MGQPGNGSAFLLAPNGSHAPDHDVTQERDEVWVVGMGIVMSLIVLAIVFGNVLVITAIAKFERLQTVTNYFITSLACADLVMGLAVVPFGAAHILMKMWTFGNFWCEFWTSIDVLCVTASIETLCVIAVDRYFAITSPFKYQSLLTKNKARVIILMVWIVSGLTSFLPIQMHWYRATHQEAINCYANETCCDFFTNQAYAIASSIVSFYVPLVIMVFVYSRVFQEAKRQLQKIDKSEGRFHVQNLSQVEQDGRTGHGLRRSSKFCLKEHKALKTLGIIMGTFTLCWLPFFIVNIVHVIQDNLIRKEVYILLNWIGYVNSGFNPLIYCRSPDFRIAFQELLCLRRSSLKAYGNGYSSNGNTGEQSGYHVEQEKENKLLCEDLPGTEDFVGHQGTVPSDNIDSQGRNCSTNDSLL
T2 sequence (Q07343 1-564 isoform Q07343-2): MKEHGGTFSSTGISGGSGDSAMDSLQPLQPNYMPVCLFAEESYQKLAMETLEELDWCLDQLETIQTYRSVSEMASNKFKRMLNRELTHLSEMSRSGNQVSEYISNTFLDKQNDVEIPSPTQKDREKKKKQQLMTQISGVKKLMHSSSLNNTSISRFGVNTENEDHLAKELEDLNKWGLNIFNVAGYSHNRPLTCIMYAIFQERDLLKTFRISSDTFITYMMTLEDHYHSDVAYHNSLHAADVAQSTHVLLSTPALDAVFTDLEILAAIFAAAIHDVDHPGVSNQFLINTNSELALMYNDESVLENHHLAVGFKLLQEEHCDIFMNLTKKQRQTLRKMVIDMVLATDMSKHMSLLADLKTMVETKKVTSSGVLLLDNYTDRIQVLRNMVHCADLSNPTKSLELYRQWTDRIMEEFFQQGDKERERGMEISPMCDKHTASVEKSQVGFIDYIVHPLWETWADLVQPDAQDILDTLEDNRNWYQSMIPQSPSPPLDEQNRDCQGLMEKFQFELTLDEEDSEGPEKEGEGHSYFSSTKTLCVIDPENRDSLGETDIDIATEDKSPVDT

Usually EC50 stands for the concentration that produces a half-maximal response. Broadly, the IC50 is the concentration at which inhibition is half-maximal. Consider `CCc1nc2c(cnn2CC)c(NC2CCOCC2)c1CNC(=O)Nc1ccc(CCCCOCCCCCCNC[C@H](O)c2ccc(O)c3[nH]c(=O)ccc23)cc1` [Example 14, (R)-1-((1,6-diethyl-4-((tetrahydro-2H-pyran-4-yl)amino)-1H-pyrazolo[3,4-b]pyridin-5-yl)methyl)-3-(4-(4-((6-((2-hydroxy-2-(8-hydroxy-2-oxo-1,2-dihydroquinolin-5-yl)ethyl)amino)hexyl)oxy)butyl)phenyl)urea], for which the EC50 in experiment [1] and in experiment [2] was under 100 nM throughout. In addition, the IC50 in experiment [3] was under 100 nM.

For the compound `CCc1nc2c(cnn2CC)c(NC2CCOCC2)c1CNC(=O)Nc1ccc(C#CCCCNC[C@H](O)c2ccc(O)c3c2OCC(=O)N3)cc1` [Example 15], the EC50 in experiment [1] and in experiment [2] was under 100 nM in each case. For the same compound, in experiment [3], the IC50 was under 100 nM.

As for `CCc1nc2c(cnn2CC)c(NC2CCOCC2)c1CNc1c(Nc2ccc(CCCCCNC[C@H](O)c3ccc(O)c4[nH]c(=O)ccc34)cc2)c(=O)c1=O` [Example 13, (R)-3-(((1,6-diethyl-4-((tetrahydro-2H-pyran-4-yl)amino)-1H-pyrazolo[3,4-b]pyridin-5-yl)methyl)amino)-4-((4-(5-((2-hydroxy-2-(8-hydroxy-2-oxo-1,2-dihydroquinolin-5-yl)ethyl)amino)pentyl)phenyl)amino)cyclobut-3-ene-1,2-dione], the EC50 in experiment [1] and in experiment [2] was under 100 nM throughout. Further, in experiment [3], the IC50 was under 100 nM.

Turning to `CCc1nc2c(cnn2CC)c(NC2CCOCC2)c1CNC(=O)CCCCCCCNC[C@H](O)c1ccc(O)c2[nH]c(=O)ccc12` [Example 10, (R)—N-[[1,6-Diethyl-4-[(tetrahydro-2H-pyran-4-yl)amino]-1H-pyrazolo[3,4-b]pyridin-5-yl]methyl]-8-[[2-hydroxy-2-(8-hydroxy-2-oxo-1,2-dihydroquinolin-5-yl)ethyl]amino]octanamide], the EC50 in experiment [1] and in experiment [2] was under 100 nM in each case. The IC50 is under 100 nM at Human recombinant PDE4B2 and over 300 nM in experiment [3].

Regarding `CCc1nc2c(cnn2CC)c(NC2CCOCC2)c1CNC(=O)Nc1ccc(C#CCCCNC[C@H](O)c2ccc(O)c3[nH]c(=O)ccc23)cc1` [Example 11], the concentration for a half-maximal effect (EC50) in experiment [1] and in experiment [2] was under 100 nM each time. Besides, the IC50 (on Human recombinant PDE4B2; in experiment [3]) was under 100 nM each time.

On to `CCc1nc2c(cnn2CC)c(NC2CCOCC2)c1CNC(=O)c1cccc(CNC[C@H](O)c2ccc(O)c(CO)c2)c1` [Example 7, (R)—N-[[1,6-Diethyl-4-[(tetrahydro-2H-pyran-4-yl)amino]-1H-pyrazolo[3,4-b]pyridin-5-yl]methyl]-3-[[[2-hydroxy-2-[4-hydroxy-3-(hydroxymethyl)phenyl]ethyl]amino]methyl]benzamide], for which the half-maximal effective concentration (EC50) in experiment [1] and in experiment [2] was over 300 nM each time. The figures for the IC50 (on Human recombinant PDE4B2; in experiment [3]) were under 100 nM and over 300 nM, respectively.

For the compound `CCc1nc2c(cnn2CC)c(NC2CCOCC2)c1CNC(=O)c1ccc(CCCCCNC[C@H](O)c2ccc(O)c3[nH]c(=O)ccc23)cc1` [Example 9, (R)—N-[[1,6-diethyl-4-[(tetrahydro-2H-pyran-4-yl)amino]-1H-pyrazolo[3,4-b]pyridin-5-yl]methyl]-4-[5-[[2-hydroxy-2-(8-hydroxy-2-oxo-1,2-dihydroquinolin-5-yl)ethyl]amino]pentyl]benzamide], the concentration giving a half-maximal response (EC50) in experiment [1] and in experiment [2] was under 100 nM throughout. The IC50 (at Human recombinant PDE4B2; in experiment [3]) was under 100 nM in each case.

`CCc1nc2c(cnn2CC)c(NC2CCOCC2)c1CNC(=O)c1cccc(CC(C)(C)NC[C@H](O)c2ccc(O)c(CO)c2)c1` [Example 3, (R)—N-[[1,6-Diethyl-4-[(tetrahydro-2H-pyran-4-yl)amino]-1H-pyrazolo[3,4-b]pyridin-5-yl]methyl]-3-[2-[[2-hydroxy-2-[4-hydroxy-3-(hydroxymethyl)phenyl]ethyl]amino]-2-methylpropyl]benzamide]: the EC50 in experiment [1] is under 300 nM; in experiment [2] it was under 100 nM. Besides, the results for the IC50 (on Human recombinant PDE4B2; in experiment [3]) were under 100 nM and under 300 nM, respectively.

Regarding `CCc1nc2c(cnn2CC)c(NC2CCOCC2)c1CNC(=O)c1cccc(CC(C)NC[C@H](O)c2ccc(O)c(CO)c2)c1` (stereo partly drawn) [Example 2, N-[[1,6-Diethyl-4-[(tetrahydro-2H-pyran-4-yl)amino]-1H-pyrazolo[3,4-b]pyridin-5-yl]methyl]-3-[2-[[(R)-2-hydroxy-2-[4-hydroxy-3-(hydroxymethyl)phenyl]ethyl]amino]propyl]benzamide], the EC50 in experiment [1] and in experiment [2] was under 100 nM each time. In addition, the IC50 is under 100 nM at Human recombinant PDE4B2 and over 300 nM in experiment [3].

With `CCc1nc2c(cnn2CC)c(NC2CCOCC2)c1CNC(=O)Nc1ccc(CCCCCNC[C@H](O)c2ccc(O)c3[nH]c(=O)ccc23)cc1` [Example 12, (R)-1-((1,6-diethyl-4-((tetrahydro-2H-pyran-4-yl)amino)-1H-pyrazolo[3,4-b]pyridin-5-yl)methyl)-3-(4-(5-((2-hydroxy-2-(8-hydroxy-2-oxo-1,2-dihydroquinolin-5-yl)ethyl)amino)pentyl)phenyl)urea], the EC50 in experiment [1] and in experiment [2] was under 100 nM in each case. For the same compound, the IC50 (at Human recombinant PDE4B2; in experiment [3]) was under 100 nM throughout.

For `CCc1nc2c(cnn2CC)c(NC2CCOCC2)c1CNC(=O)c1ccc(CNC[C@H](O)c2ccc(O)c(CO)c2)cc1` [Example 8, (R)—N-[[1,6-diethyl-4-[(tetrahydro-2H-pyran-4-yl)amino]-1H-pyrazolo[3,4-b]pyridin-5-yl]methyl]-4-[[[2-hydroxy-2-[4-hydroxy-3-(hydroxymethyl)phenyl]ethyl]amino]methyl]benzamide], the values for the EC50 in experiment [1] and in experiment [2] were over 300 nM and under 300 nM, respectively. Moreover, the values for the IC50 (at Human recombinant PDE4B2; in experiment [3]) were under 100 nM and over 300 nM, respectively.

As for `CCc1nc2c(cnn2CC)c(NC2CCOCC2)c1CNC(=O)c1cccc(CC(C)(C)NC[C@H](O)c2ccc(O)c3[nH]c(=O)ccc23)c1` [Example 4, (R)—N-[[1,6-Diethyl-4-[(tetrahydro-2H-pyran-4-yl)amino]-1H-pyrazolo[3,4-b]pyridin-5-yl]methyl]-3-[2-[[2-hydroxy-2-(8-hydroxy-2-oxo-1,2-dihydroquinolin-5-yl)ethyl]-amino]-2-methylpropyl]benzamide], the EC50 in experiment [1] and in experiment [2] was under 100 nM each time. Besides, the IC50 (on Human recombinant PDE4B2; in experiment [3]) was under 100 nM in each case.

These data come from patent publication US8367829B2, “Bi-functional pyrazolopyridine compounds” (Gilead Sciences, Inc., priority 2010, dated 2013).
